# Assay results published in patent publication US9340590B2 (priority 2011, dated 2016).
# Where two headings read alike, the source gives them in different places. Positions of bridges follow the written chain, without caps; N, C: chain ends. Non-standard residues stand in square brackets, D forms with d. Residues, ends and D or L forms follow the SMILES beside them. 1Nal = N[C@@H](Cc1cccc2ccccc12)C(=O)O; Cit = NC(=O)NCCC[C@H](N)C(=O)O; hLeu = CC(C)CC[C@H](N)C(=O)O
# How the values were obtained:
# Assay in all cases: cell-based
# [1] = molecular target: hNav1.7 (Homo sapiens, UniProt Q15858); type: cell-based; conditions: IonWorks Quattro, read-out: IWQ Use Nav1.7
# [2] = molecular target: hNav1.5 (Homo sapiens, UniProt Q14524); conditions: IonWorks Quattro, read-out: IWQ Use Nav1.5
# [3] = molecular target: hNav1.3 (Homo sapiens, UniProt Q9NY46); conditions: IonWorks Quattro, read-out: IWQ Use Nav1.3
# [4] = clamped to −110 mV, depolarized to −10 mV, 5 min after compound, n=2
# hNav1.5, sequence (Q14524 whole entry, looked up): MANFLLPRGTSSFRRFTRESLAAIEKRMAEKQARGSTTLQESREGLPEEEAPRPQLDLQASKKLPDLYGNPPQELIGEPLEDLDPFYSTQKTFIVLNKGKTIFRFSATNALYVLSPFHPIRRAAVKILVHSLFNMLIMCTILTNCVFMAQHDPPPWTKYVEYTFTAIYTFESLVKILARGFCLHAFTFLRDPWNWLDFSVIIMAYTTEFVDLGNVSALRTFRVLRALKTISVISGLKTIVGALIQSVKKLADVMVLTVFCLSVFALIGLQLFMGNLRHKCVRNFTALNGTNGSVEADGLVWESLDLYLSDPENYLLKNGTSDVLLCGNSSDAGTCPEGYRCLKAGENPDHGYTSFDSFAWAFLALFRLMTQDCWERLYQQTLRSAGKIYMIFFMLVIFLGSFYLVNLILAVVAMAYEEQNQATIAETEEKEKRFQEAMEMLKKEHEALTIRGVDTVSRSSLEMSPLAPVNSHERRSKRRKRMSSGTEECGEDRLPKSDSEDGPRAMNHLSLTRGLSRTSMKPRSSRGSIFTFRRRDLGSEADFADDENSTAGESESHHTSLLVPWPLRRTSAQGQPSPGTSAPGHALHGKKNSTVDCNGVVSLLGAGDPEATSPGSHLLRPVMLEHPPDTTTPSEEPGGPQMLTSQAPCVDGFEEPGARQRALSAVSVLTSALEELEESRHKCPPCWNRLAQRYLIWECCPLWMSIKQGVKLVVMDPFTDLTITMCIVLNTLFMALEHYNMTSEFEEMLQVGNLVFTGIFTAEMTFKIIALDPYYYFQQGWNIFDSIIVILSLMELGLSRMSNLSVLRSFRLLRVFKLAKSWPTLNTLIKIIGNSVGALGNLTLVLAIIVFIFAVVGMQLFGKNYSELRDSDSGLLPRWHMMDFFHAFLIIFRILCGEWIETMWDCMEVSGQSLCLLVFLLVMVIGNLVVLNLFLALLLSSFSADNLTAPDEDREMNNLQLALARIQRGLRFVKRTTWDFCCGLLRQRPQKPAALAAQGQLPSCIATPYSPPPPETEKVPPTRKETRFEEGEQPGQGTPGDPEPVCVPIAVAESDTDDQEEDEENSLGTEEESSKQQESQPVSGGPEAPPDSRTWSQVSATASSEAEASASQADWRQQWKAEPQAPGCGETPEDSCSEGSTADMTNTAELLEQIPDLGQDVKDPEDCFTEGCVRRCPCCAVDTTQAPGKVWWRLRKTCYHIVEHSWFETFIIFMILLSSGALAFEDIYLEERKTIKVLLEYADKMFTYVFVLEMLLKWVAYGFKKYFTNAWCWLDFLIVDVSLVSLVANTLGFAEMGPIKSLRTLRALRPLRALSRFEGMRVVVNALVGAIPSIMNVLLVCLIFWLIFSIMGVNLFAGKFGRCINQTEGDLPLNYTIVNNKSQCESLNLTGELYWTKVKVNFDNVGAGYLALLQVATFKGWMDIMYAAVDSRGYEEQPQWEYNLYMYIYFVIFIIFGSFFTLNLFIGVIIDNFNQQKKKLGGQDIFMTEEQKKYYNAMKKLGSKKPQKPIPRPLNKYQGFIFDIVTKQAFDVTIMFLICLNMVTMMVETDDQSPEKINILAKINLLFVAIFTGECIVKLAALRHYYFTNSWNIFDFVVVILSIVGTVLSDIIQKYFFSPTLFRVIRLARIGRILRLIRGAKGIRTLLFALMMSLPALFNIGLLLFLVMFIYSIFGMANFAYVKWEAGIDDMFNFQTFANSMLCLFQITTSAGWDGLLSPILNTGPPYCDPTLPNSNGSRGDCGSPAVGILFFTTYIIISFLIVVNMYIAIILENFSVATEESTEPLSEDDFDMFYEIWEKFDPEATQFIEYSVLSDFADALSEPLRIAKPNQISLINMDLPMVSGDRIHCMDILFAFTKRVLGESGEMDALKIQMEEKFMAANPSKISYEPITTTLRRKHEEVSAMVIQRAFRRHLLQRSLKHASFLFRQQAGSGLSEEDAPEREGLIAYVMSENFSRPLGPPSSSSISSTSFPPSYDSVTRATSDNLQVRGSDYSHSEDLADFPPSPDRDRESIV
# hNav1.3, sequence (Q9NY46 whole entry, looked up): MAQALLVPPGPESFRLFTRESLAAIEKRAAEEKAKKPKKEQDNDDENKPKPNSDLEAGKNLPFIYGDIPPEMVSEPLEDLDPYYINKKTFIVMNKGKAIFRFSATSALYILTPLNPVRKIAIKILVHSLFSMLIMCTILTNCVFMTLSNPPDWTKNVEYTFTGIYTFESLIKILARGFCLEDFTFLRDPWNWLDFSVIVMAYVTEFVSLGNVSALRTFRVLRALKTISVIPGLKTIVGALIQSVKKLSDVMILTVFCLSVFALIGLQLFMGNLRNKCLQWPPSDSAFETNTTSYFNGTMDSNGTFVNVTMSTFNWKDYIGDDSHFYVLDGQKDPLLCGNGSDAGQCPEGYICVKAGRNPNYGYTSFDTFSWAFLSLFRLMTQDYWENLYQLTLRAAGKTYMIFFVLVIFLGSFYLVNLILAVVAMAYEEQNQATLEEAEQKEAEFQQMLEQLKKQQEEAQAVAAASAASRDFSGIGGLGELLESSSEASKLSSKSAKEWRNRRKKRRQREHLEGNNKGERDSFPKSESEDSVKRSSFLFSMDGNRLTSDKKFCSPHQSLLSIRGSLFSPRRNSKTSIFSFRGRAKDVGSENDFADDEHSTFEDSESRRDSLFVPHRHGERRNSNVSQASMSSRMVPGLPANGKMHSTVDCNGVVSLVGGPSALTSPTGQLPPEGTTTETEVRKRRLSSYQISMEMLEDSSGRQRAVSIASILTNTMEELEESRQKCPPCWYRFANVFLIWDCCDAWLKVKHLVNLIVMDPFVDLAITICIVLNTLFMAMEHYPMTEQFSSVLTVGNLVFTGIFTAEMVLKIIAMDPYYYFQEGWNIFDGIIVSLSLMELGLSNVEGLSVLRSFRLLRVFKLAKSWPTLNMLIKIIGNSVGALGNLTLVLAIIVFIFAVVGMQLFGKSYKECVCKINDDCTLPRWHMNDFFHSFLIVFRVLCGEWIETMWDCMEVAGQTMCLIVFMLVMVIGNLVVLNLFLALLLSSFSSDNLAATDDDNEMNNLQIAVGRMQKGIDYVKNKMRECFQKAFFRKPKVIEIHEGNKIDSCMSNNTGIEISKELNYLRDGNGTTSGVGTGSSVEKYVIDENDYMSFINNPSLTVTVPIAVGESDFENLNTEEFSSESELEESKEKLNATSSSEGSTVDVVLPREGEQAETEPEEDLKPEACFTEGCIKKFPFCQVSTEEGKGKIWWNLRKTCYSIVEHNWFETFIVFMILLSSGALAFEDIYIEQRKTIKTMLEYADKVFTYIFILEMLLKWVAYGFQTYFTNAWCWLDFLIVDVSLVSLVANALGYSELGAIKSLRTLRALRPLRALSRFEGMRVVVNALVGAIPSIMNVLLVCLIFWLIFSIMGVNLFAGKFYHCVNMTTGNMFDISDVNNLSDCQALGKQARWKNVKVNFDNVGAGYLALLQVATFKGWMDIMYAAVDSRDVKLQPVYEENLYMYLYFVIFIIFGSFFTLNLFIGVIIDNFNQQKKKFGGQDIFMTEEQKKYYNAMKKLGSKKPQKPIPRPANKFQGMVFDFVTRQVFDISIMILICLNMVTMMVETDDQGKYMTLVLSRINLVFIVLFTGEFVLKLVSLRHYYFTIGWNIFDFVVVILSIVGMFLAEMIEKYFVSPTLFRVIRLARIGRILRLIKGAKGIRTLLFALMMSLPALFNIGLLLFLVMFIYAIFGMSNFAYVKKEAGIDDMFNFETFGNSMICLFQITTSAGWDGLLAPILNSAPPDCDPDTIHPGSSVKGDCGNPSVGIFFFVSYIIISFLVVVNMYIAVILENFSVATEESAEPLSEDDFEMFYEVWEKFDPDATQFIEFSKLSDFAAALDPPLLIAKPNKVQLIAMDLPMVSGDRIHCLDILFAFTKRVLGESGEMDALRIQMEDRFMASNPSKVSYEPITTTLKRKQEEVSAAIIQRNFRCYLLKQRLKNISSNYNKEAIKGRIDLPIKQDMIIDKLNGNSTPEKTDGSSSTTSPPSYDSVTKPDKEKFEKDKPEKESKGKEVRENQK
smiles,measurement,setting,value
"CC[C@H](C)[C@@H]1NC(=O)[C@@H]2CSSC[C@@H]3NC(=O)[C@H](C(C)C)NC(=O)[C@H](CC(C)C)NC(=O)[C@H](CC(N)=O)NC(=O)[C@@H]4CCCN4C(=O)[C@H](CCCNC(=N)N)NC(=O)[C@H](CSSC[C@H](NC(=O)[C@@H](N)CC(=O)O)C(=O)N[C@@H](CC(C)C)C(=O)N[C@@H](CCC(=O)O)C(=O)N[C@@H](C)C(=O)N[C@@H](CCSC)C(=O)N[C@@H](CCCNC(=N)N)C(=O)N[C@@H](CCCCN)C(=O)N2)NC(=O)[C@H](CSSC[C@@H](C(=O)N[C@@H](CCCCN)C(=O)N[C@@H](Cc2ccc(O)cc2)C(=O)N[C@H](C(=O)N[C@@H](Cc2ccccc2)C(N)=O)C(C)C)NC(=O)[C@H](Cc2c[nH]c4ccccc24)NC(=O)[C@H](CCCCN)NC(=O)[C@H](Cc2c[nH]cn2)NC(=O)[C@H]([C@@H](C)O)NC(=O)[C@H](CCCNC(=N)N)NC(=O)[C@H](CO)NC3=O)NC(=O)[C@H](CCCCN)NC(=O)[C@H](CC(=O)O)NC(=O)[C@H](CC(N)=O)NC(=O)[C@H](CC(=O)O)NC(=O)[C@@H]2CCCN2C1=O [compound 429] (H-DCLEAMRKCIPDNDKCCRPNLVCSRTHKWCKYVF-NH2; disulfide 2-17, 9-23, 16-30)",IC50,"[1]; use-dependent block, hNav1.7",4640 nM
same,IC50,"[2]; use-dependent block, hNav1.5",> 5000 nM
same,IC50,"[3]; use-dependent block, hNav1.3",3990 nM
"CC[C@H](C)[C@@H]1NC(=O)[C@H](CCCNC(=N)N)NC(=O)[C@H](CO)NC(=O)[C@@H]2CSSC[C@@H]3NC(=O)[C@H](CCCCN)NC(=O)[C@H](CCCNC(=N)N)NC(=O)[C@H](CCSC)NC(=O)[C@H](Cc4ccccc4)NC(=O)CNC(=O)[C@H](CC(C)C)NC(=O)[C@@H](NC(=O)[C@@H](N)CC(=O)O)CSSC[C@H](NC(=O)[C@H](CSSC[C@@H](C(=O)N[C@@H](CCCCN)C(=O)N[C@@H](Cc4ccc(O)cc4)C(=O)N[C@H](C(=O)N[C@@H](Cc4ccccc4)C(N)=O)C(C)C)NC(=O)[C@H](Cc4c[nH]c5ccccc45)NC(=O)[C@H](CCCCN)NC(=O)[C@H](Cc4c[nH]cn4)NC1=O)NC(=O)[C@H](CCCCN)NC(=O)[C@H](CC(=O)O)NC(=O)[C@H](CC(N)=O)NC(=O)[C@H](CC(=O)O)NC(=O)[C@@H]1CCCN1C(=O)[C@H]([C@@H](C)CC)NC3=O)C(=O)N[C@@H](CCCNC(=N)N)C(=O)N1CCC[C@H]1C(=O)N[C@@H](CC(N)=O)C(=O)N[C@@H](CC(C)C)C(=O)N[C@@H](C(C)C)C(=O)N2 [compound 348] (H-DCLGFMRKCIPDNDKCCRPNLVCSRIHKWCKYVF-NH2; disulfide 2-17, 9-23, 16-30)",IC50,"[1]; Table 22, use, […]",50 nM
same,IC50,"[2]; Table 22, use, […]",8150 nM
same,IC50,"[3]; Table 22, use, […]",30 nM
"CC[C@H](C)[C@@H]1NC(=O)[C@@H]2CSSC[C@@H]3NC(=O)[C@H](C(C)C)NC(=O)[C@H](CC(C)C)NC(=O)[C@H](CC(N)=O)NC(=O)[C@@H]4CCCN4C(=O)[C@H](CCCNC(=N)N)NC(=O)[C@H](CSSC[C@H](NC(=O)[C@@H](N)CC(=O)O)C(=O)N[C@@H](CC(C)C)C(=O)NCC(=O)N[C@@H](Cc4ccccc4)C(=O)N[C@@H](CCSC)C(=O)N[C@@H](CCCNC(=N)N)C(=O)N[C@@H](CCCCN)C(=O)N2)NC(=O)[C@H](CSSC[C@@H](C(=O)N[C@@H](CCCCN)C(=O)N[C@@H](Cc2ccc(O)cc2)C(=O)N[C@H](C(=O)N[C@@H](Cc2ccccc2)C(N)=O)C(C)C)NC(=O)[C@H](Cc2c[nH]c4ccccc24)NC(=O)[C@H](CCCCN)NC(=O)[C@H](Cc2c[nH]cn2)NC(=O)[C@H]([C@@H](C)O)NC(=O)[C@H](CCCNC(=N)N)NC(=O)[C@H](CO)NC3=O)NC(=O)[C@H](CCCCN)NC(=O)[C@H](CC(=O)O)NC(=O)[C@H](CC(N)=O)NC(=O)[C@H](Cc2cccc3ccccc23)NC(=O)[C@@H]2CCCN2C1=O [compound 162] (H-DCLGFMRKCIP[1Nal]NDKCCRPNLVCSRTHKWCKYVF-NH2; disulfide 2-17, 9-23, 16-30)",IC50,[1]; Use,60 nM
same,IC50,[2]; Use,9880 nM
same,IC50,[3]; Use,40 nM
"CC[C@H](C)[C@@H]1NC(=O)[C@@H]2CSSC[C@@H]3NC(=O)[C@H](C(C)C)NC(=O)[C@H](CC(C)C)NC(=O)[C@H](CC(N)=O)NC(=O)[C@@H]4CCCN4C(=O)[C@H](CCCNC(=N)N)NC(=O)[C@H](CSSC[C@H](NC(=O)[C@@H](N)CC(=O)O)C(=O)N[C@@H](CC(C)C)C(=O)NCC(=O)N[C@@H](Cc4ccccc4)C(=O)N[C@@H](C(C)C)C(=O)N[C@@H](CCCNC(=N)N)C(=O)N[C@@H](CCCCN)C(=O)N2)NC(=O)[C@H](CSSC[C@@H](C(=O)N[C@@H](CCCCN)C(=O)N[C@@H](Cc2ccc(O)cc2)C(=O)N[C@H](C(=O)N[C@@H](Cc2ccccc2)C(N)=O)C(C)C)NC(=O)[C@H](Cc2c[nH]c4ccccc24)NC(=O)[C@H](CCCCN)NC(=O)[C@H](Cc2c[nH]cn2)NC(=O)[C@H]([C@@H](C)O)NC(=O)[C@H](CCCNC(=N)N)NC(=O)[C@H](CO)NC3=O)NC(=O)[C@H](CCCCN)NC(=O)[C@H](CC(=O)O)NC(=O)[C@H](CC(N)=O)NC(=O)[C@H](CC(=O)O)NC(=O)[C@@H]2CCCN2C1=O [SEQ ID NO: 287] (H-DCLGFVRKCIPDNDKCCRPNLVCSRTHKWCKYVF-NH2; disulfide 2-17, 9-23, 16-30)",IC50,[1]; [4],90 nM
same,IC50,[2]; [4],9230 nM
same,IC50,[3]; [4],80 nM
"CC[C@H](C)[C@@H]1NC(=O)[C@@H]2CSSC[C@@H]3NC(=O)[C@H](C(C)C)NC(=O)[C@H](CC(C)C)NC(=O)[C@H](CC(N)=O)NC(=O)[C@@H]4CCCN4C(=O)[C@H](CCCNC(=N)N)NC(=O)[C@H](CSSC[C@H](NC(=O)[C@@H](N)CC(=O)O)C(=O)N[C@@H](CC(C)C)C(=O)NCC(=O)N[C@@H](CCC(C)C)C(=O)N[C@@H](Cc4ccccc4)C(=O)N[C@@H](CCCNC(=N)N)C(=O)N[C@@H](CCCCN)C(=O)N2)NC(=O)[C@H](CSSC[C@@H](C(=O)N[C@@H](CCCCN)C(=O)N[C@@H](Cc2ccc(O)cc2)C(=O)N[C@H](C(=O)N[C@@H](Cc2ccccc2)C(N)=O)C(C)C)NC(=O)[C@H](Cc2c[nH]c4ccccc24)NC(=O)[C@H](CCCCN)NC(=O)[C@H](Cc2c[nH]cn2)NC(=O)[C@H]([C@@H](C)O)NC(=O)[C@H](CCCNC(=N)N)NC(=O)[C@H](CO)NC3=O)NC(=O)[C@H](CCCCN)NC(=O)[C@H](CC(=O)O)NC(=O)[C@H](CC(N)=O)NC(=O)[C@H](CC(=O)O)NC(=O)[C@@H]2CCCN2C1=O [compound 610] (H-DCLG[hLeu]FRKCIPDNDKCCRPNLVCSRTHKWCKYVF-NH2; disulfide 2-17, 9-23, 16-30)",IC50,"[1]; use-dependent block, hNav1.7",11 nM
same,IC50,"[2]; use-dependent block, hNav1.5",8200 nM
same,IC50,"[3]; use-dependent block, hNav1.3",41 nM
"CC[C@H](C)[C@@H]1NC(=O)[C@@H]2CSSC[C@@H]3NC(=O)[C@H](C(C)C)NC(=O)[C@H](CC(C)C)NC(=O)[C@H](CC(N)=O)NC(=O)[C@@H]4CCCN4C(=O)[C@H](CCCNC(=N)N)NC(=O)[C@H](CSSC[C@H](NC(=O)[C@@H](N)CC(=O)O)C(=O)N[C@@H](CC(C)C)C(=O)NCC(=O)N[C@@H](Cc4ccccc4)C(=O)N[C@@H](CCSC)C(=O)N[C@@H](CCCNC(=N)N)C(=O)N[C@@H](CCCCN)C(=O)N2)NC(=O)[C@H](CSSC[C@@H](C(=O)N[C@@H](CCCCN)C(=O)N[C@@H](Cc2ccc(O)cc2)C(=O)N[C@H](C(=O)N[C@@H](Cc2ccccc2)C(N)=O)C(C)C)NC(=O)[C@H](Cc2c[nH]c4ccccc24)NC(=O)[C@H](CCCCN)NC(=O)[C@H](Cc2c[nH]cn2)NC(=O)CNC(=O)[C@H](CCCNC(=N)N)NC(=O)[C@H](CO)NC3=O)NC(=O)[C@H](CCCCN)NC(=O)[C@H](CC(=O)O)NC(=O)[C@H](CC(N)=O)NC(=O)[C@H](CC(=O)O)NC(=O)[C@@H]2CCCN2C1=O [compound 343] (H-DCLGFMRKCIPDNDKCCRPNLVCSRGHKWCKYVF-NH2; disulfide 2-17, 9-23, 16-30)",IC50,"[1]; Table 22, use, […]",100 nM
same,IC50,"[2]; Table 22, use, […]",4070 nM
same,IC50,"[3]; Table 22, use, […]",90 nM
"CC[C@H](C)[C@@H]1NC(=O)[C@@H]2CSSC[C@@H]3NC(=O)[C@H](C(C)C)NC(=O)[C@H](CC(C)C)NC(=O)[C@H](CC(N)=O)NC(=O)[C@@H]4CCCN4C(=O)[C@H](CCCNC(=N)N)NC(=O)[C@H](CSSC[C@H](NC(=O)[C@@H](N)CC(=O)O)C(=O)N[C@@H](CC(C)C)C(=O)NCC(=O)N[C@@H](C)C(=O)N[C@@H](CCSC)C(=O)N[C@@H](CCCNC(=N)N)C(=O)N[C@@H](CCCCN)C(=O)N2)NC(=O)[C@H](CSSC[C@@H](C(=O)N[C@@H](CCCCN)C(=O)N[C@@H](Cc2ccc(O)cc2)C(=O)N[C@H](C(=O)N[C@@H](Cc2ccccc2)C(N)=O)C(C)C)NC(=O)[C@H](Cc2c[nH]c4ccccc24)NC(=O)[C@H](CCCCN)NC(=O)[C@H](Cc2c[nH]cn2)NC(=O)[C@H]([C@@H](C)O)NC(=O)[C@H](CCCNC(N)=O)NC(=O)[C@H](CO)NC3=O)NC(=O)[C@H](CCCCN)NC(=O)[C@H](CC(=O)O)NC(=O)[C@H](CC(N)=O)NC(=O)[C@H](CC(=O)O)NC(=O)[C@@H]2CCCN2C1=O [compound 768] (H-DCLGAMRKCIPDNDKCCRPNLVCS[Cit]THKWCKYVF-NH2; disulfide 2-17, 9-23, 16-30)",IC50,"[1]; use-dependent block, hNav1.7",1800 nM
same,IC50,"[2]; use-dependent block, hNav1.5",23500 nM
same,IC50,"[3]; use-dependent block, hNav1.3",3200 nM
